Target: T1, Recombinant human mPGES-1 (Homo sapiens, UniProt O14684)
T1 sequence (O14684 1-152): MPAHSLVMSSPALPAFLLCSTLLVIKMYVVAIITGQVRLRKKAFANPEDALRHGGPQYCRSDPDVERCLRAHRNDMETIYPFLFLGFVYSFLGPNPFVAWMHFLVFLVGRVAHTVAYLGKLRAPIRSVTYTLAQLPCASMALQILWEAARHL
Test: In-vitro mPGES-1 enzyme inhibition assay (PGE2 formation from PGH2, HTRF detection)
Assay type: biochemical
Details: for inhibition at 1 µM: 1 μM test compound, read-out: Percentage inhibition at 1 μM; for inhibition at 1 µM / inhibition at 10 µM: recombinant human mPGES-1 microsomal fraction; for inhibition at 10 µM: 10 μM test compound, read-out: Percentage inhibition at 10 μM; for IC50: class symbols, selected examples
Procedure, shortened: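 Crude microsomal fractions containing recombinant human mPGES-1 (40-60 μg/mL protein) convert PGH2 to PGE2 in the presence of reduced glutathione, with 0.5% final DMSO. Reaction stopped with stannous chloride, and PGE2 measured by anti-PGE2 antibody (HTRF) detection. IC50 by nonlinear regression of % inhibition versus uninhibited enzyme control.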

| inhibition at 1 µM | inhibition at 10 µM | IC50 | Structure (SMILES) |
| --- | --- | --- | --- |
| 91.6% | 96.1% | – | Cc1cc2c(o1)c(C(=O)NCC1CCCCC1)cc1nc(Nc3c(F)cccc3Cl)[nH]c12 [Example-49, 2-[(2-Chloro-6-fluorophenyl)amino]-N-(cyclohexylmethyl)-7-methyl-1H-furo[3,2-e]benzimidazole-5-carboxamide] |
| 97.1% | 100% | < 50 nM | Cc1cccc(Cl)c1Nc1nc2cc(C(=O)Nc3ccc(C(F)(F)F)cn3)c3c(c2[nH]1)CC(C)(C)O3 [Example-124, 2-[(2-Chloro-6-methylphenyl)amino]-7,7-dimethyl-N-[5-(trifluoromethyl)pyridin-2-yl]-7,8-dihydro-1H-furo[3,2-e]benzimidazole-5-carboxamide] |
| 98.4% | 99.8% | < 50 nM | CC1(C)Cc2c(c(C(=O)Nc3ccc(Cl)cc3)cc3nc(Nc4ccccc4Cl)[nH]c23)O1 [Example-18, N-(4-Chlorophenyl)-2-[(2-chlorophenyl)amino]-7,7-dimethyl-7,8-dihydro-1H-furo[3,2-e]benzimidazole-5-carboxamide] |
| 97.1% | 98.9% | < 50 nM | CC1(C)Cc2c(c(C(=O)Nc3ccc(C4CC4)cc3)cc3nc(Nc4c(F)cccc4Cl)[nH]c23)O1 [Example-140, 2-((2-Chloro-6-fluorophenyl)amino)-N-(4-cyclopropylphenyl)-7,7-dimethyl-7,8-dihydro-1H-benzofuro[4,5-d]imidazole-5-carboxamide] |
| 94.2% | 97.5% | – | Cc1cc2c(o1)c(C(=O)NC1CCCCC1)cc1nc(Nc3c(Cl)cccc3Cl)[nH]c12 [Example-13, N-Cyclohexyl-2-[(2,6-dichlorophenyl)amino]-7-methyl-1H-furo[3,2-e]benzimidazole-5-carboxamide] |
| 47.2% | 85.4% | – | CC1(C)Cc2c(c(C(=O)Nc3nc(C(C)(C)C)cs3)cc3nc(Nc4c(F)cccc4Cl)[nH]c23)O1 [Example-53, N-(4-tert-Butyl-1,3-thiazol-2-yl)-2-[(2-chloro-6-fluorophenyl)amino]-7,7-dimethyl-7,8-dihydro-1H-furo[3,2-e]benzimidazole-5-carboxamide] |
| 93.2% | 92% | < 50 nM | CC1(C)Cc2c(c(C(=O)NCc3ccccc3C(F)(F)F)cc3nc(Nc4c(F)cccc4Cl)[nH]c23)O1 [Example-80, 2-[(2-Chloro-6-fluorophenyl)amino]-7,7-dimethyl-N-[2-(trifluoromethyl)benzyl]-7,8-dihydro-1H-furo[3,2-e]benzimidazole-5-carboxamide] |
| 97.7% | 98.4% | < 50 nM | CC(C)c1ccc(NC(=O)c2cc3nc(Nc4c(Cl)cccc4Cl)[nH]c3c3c2OC(C)(C)C3)cc1 [Example-90, 2-[(2,6-Dichlorophenyl)amino]-7,7-dimethyl-N-[4-(propan-2-yl)phenyl]-7,8-dihydro-1H-furo[3,2-e]benzimidazole-5-carboxamide] |
| 62.8% | 96.9% | – | Cc1cccc(Cl)c1Nc1nc2cc(C(=O)Nc3ccc(C(F)(F)F)c[n+]3[O-])c3c(c2[nH]1)CC(C)(C)O3 [Example-163, 2-(2-((2-Chloro-6-methylphenyl)amino)-7,7-dimethyl-7,8-dihydro-1H-benzofuro[4,5-d]imidazole-5-carboxamido)-5-(trifluoromethyl)pyridine 1-oxide] |
| 96.4% | 98.6% | < 50 nM | CC1(C)Cc2c(c(C(=O)Nc3cc(F)c(F)cc3F)cc3nc(Nc4c(Cl)cccc4Cl)[nH]c23)O1 [Example-141, 2-((2,6-Dichlorophenyl)amino)-7,7-dimethyl-N-(2,4,5-trifluorophenyl)-7,8-dihydro-1H-benzofuro[4,5-d]imidazole-5-carboxamide] |
| 99.2% | 100% | – | CC1(C)Cc2c(c(C(=O)Nc3ccc(C(F)(F)F)cc3F)cc3nc(Nc4c(Cl)cncc4Cl)[nH]c23)O1 [Example-194, 2-((3,5-Dichloropyridin-4-yl)amino)-N-(2-fluoro-4-(trifluoromethyl)phenyl)-7,7-dimethyl-7,8-dihydro-1H-benzofuro[4,5-d]imidazole-5-carboxamide] |
| 92% | 98.2% | < 50 nM | CC(C)(C)CC(C)(C)NC(=O)c1cc2nc(Nc3c(Cl)cncc3Cl)[nH]c2c2c1OC(C)(C)C2 [Example-25, 2-[(3,5-Dichloropyridin-4-yl)amino]-7,7-dimethyl-N-(2,4,4-trimethylpentan-2-yl)-7,8-dihydro-1H-furo[3,2-e]benzimidazole-5-carboxamide] |
| 96% | 98.2% | < 50 nM | CC1(C)Cc2c(c(C(=O)Nc3cccc(F)c3)cc3nc(Nc4c(F)cccc4Cl)[nH]c23)O1 [Example-56, 2-[(2-Chloro-6-fluorophenyl)amino]-N-(3-fluorophenyl)-7,7-dimethyl-7,8-dihydro-1H-furo[3,2-e]benzimidazole-5-carboxamide] |
| 100% | 94.8% | < 50 nM | CC1(C)Cc2c(c(C(=O)Nc3cc(C4CC4)ccc3F)cc3nc(Nc4c(Cl)cncc4Cl)[nH]c23)O1 [Example-203, N-(5-Cyclopropyl-2-fluorophenyl)-2-((3,5-dichloropyridin-4-yl)amino)-7,7-dimethyl-7,8-dihydro-1H-benzofuro[4,5-d]imidazole-5-carboxamide] |
| 95.3% | 95% | < 50 nM | CC1(C)Cc2c(c(C(=O)Nc3ccc(F)cc3)cc3nc(Nc4c(Cl)cncc4Cl)[nH]c23)O1 [Example-24, 2-[(3,5-Dichloropyridin-4-yl)amino]-N-(4-fluorophenyl)-7,7-dimethyl-7,8-dihydro-1H-furo[3,2-e]benzimidazole-5-carboxamide] |
| 97.5% | 98.6% | < 50 nM | Cc1cccc(Cl)c1Nc1nc2cc(C(=O)Nc3cc(C(F)F)ccc3F)c3c(c2[nH]1)CC(C)(C)O3 [Example-135, 2-((2-Chloro-6-methylphenyl)amino)-N-(5-(difluoromethyl)-2-fluorophenyl)-7,7-dimethyl-7,8-dihydro-1H-benzofuro[4,5-d]imidazole-5-carboxamide] |
| 100% | 92% | < 50 nM | CC1(C)Cc2c(c(C(=O)Nc3ccc(F)c(C(F)(F)F)c3)cc3nc(Nc4c(F)cccc4Cl)[nH]c23)O1 [Example-104, 2-[(2-Chloro-6-fluorophenyl)amino]-N-[4-fluoro-3-(trifluoromethyl)phenyl]-7,7-dimethyl-7,8-dihydro-1H-furo[3,2-e]benzimidazole-5-carboxamide] |
